Measurements as given in patent publication US20210122730A1, “GLUCOCORTICOID RECEPTOR MODULATORS” (ORIC Pharmaceuticals, Inc., priority 2017, published 2021).

What was measured:
[1] = molecular target: T1, GR (Homo sapiens, UniProt P04150); experiment: In Vitro GR Luciferase Reporter Assay (antagonist mode, CHO-K1-GR-MMTV-Luc reporter cells); format: cell-based; settings: antagonist mode, 10 nM Dexamethasone
T1 construct: expressed in transfected cells; host or cells: CHO-K1
T1 sequence (P04150 1-777): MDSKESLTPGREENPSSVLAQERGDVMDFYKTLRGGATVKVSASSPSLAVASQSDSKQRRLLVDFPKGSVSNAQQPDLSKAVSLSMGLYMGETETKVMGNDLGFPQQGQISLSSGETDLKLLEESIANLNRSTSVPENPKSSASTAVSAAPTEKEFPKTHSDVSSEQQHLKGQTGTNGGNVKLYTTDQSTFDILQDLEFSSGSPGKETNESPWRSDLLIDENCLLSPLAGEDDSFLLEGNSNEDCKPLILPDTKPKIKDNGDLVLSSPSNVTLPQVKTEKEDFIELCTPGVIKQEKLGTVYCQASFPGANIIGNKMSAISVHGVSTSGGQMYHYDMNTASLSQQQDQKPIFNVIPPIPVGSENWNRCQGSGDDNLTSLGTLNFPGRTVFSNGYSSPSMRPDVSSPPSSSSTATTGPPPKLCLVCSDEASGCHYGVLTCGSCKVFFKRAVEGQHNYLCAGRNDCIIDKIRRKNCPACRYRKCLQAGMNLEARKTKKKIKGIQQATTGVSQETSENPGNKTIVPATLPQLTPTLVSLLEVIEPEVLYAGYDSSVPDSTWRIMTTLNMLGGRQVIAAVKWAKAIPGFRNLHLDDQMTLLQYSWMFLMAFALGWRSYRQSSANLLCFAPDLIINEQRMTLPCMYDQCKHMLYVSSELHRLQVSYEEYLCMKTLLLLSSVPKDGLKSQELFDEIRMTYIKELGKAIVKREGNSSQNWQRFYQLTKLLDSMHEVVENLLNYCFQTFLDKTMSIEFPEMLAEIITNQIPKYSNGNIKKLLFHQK
Outline: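 Antagonist mode: compounds (8 serial 1:5 dilutions) added to GR-MMTV-luciferase CHO-K1 reporter cells co-exposed to 10 nM dexamethasone final, in phenol red-free DMEM plus 10% CSS. After roughly 18-24 h at 37° C, OneGlo luminescence read and IC50 calculated.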

[2] = molecular target: T2, CYP2C8 (Homo sapiens, UniProt P10632); experiment: CYP Inhibition Assay (CYP2C8, human liver microsomes, paclitaxel substrate); format: in vitro ADME; settings: pH 7.4; pooled human liver microsomes 0.1 mg/mL, probe substrate paclitaxel
T2 construct: Pooled human microsomes were obtained from Sekisui XenoTech, KS; tissue Sekisui XenoTech, KS; host or cells: pooled human liver microsomes
T2 sequence (P10632 1-490): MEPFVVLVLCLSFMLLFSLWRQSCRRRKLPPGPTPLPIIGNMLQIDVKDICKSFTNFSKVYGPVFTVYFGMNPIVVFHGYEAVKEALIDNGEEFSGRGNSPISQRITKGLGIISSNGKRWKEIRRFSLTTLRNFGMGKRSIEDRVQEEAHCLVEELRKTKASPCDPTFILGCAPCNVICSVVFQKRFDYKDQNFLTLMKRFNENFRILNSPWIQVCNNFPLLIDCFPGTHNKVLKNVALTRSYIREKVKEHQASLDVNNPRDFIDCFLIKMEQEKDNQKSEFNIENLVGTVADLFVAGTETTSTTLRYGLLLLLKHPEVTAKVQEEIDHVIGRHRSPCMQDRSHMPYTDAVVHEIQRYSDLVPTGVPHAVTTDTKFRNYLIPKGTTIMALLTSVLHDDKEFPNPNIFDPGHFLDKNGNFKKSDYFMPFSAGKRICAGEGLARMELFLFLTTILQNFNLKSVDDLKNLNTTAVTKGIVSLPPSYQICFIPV
Outline: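 CYP2C8 activity read as 6α-hydroxypaclitaxel formation by LC-MS/MS, with % inhibition versus vehicle control. Reactions ran 5 min at 37° C, pH 7.4 phosphate buffer, 0.1 mg/mL pooled human liver microsomes, 1 mM NADPH, duplicate wells.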

| IC50 [1] | inhibition at 5 min [2] | SMILES |
| --- | --- | --- |
| ≤ 100 nM | 50 to 75% | Cn1cc(S(=O)(=O)N(C2CC2)[C@H]2CCC3=Cc4c(cnn4-c4ccc(F)cc4)C[C@]3(C(=O)c3cc(C(F)(F)F)ccn3)C2)nn1 [Example 222, N-cyclopropyl-N-((4aS,6S)-1-(4-fluorophenyl)-4a-(4-(trifluoromethyl)picolinoyl)-4,4a,5,6,7,8-hexahydro-1H-benzo[f]indazol-6-yl)-1-methyl-1H-1,2,3-triazole-4-sulfonamide] |
| ≤ 100 nM | 25 to 50% | O=C(c1cc(C(F)(F)F)ccn1)[C@]12Cc3cnn(-c4ccc(F)cc4)c3C=C1CC[C@H](N(C1CC1)S(=O)(=O)c1ccc(Cl)nc1)C2 [Example 223, 6-chloro-N-cyclopropyl-N-((4aS,6S)-1-(4-fluorophenyl)-4a-(4-(trifluoromethyl)picolinoyl)-4,4a,5,6,7,8-hexahydro-1H-benzo[f]indazol-6-yl)pyridine-3-sulfonamide] |
| ≤ 100 nM | 25 to 50% | Cn1ccc(S(=O)(=O)N(C2CC2)[C@H]2CCC3=Cc4c(cnn4-c4ccc(F)cc4)C[C@]3(C(=O)c3cc(F)ccn3)C2)n1 [Example 224, N-cyclopropyl-N-((4aS,6S)-1-(4-fluorophenyl)-4a-(4-fluoropicolinoyl)-4,4a,5,6,7,8-hexahydro-1H-benzo[f]indazol-6-yl)-1-methyl-1H-pyrazole-3-sulfonamide] |
| ≤ 100 nM | 50 to 75% | Cn1ccc(S(=O)(=O)N(C2CC2)[C@H]2CCC3=Cc4c(cnn4-c4ccc(F)cc4)C[C@]3(C(=O)c3cc(Cl)ccn3)C2)n1 [Example 225, N-((4aS,6S)-4a-(4-chloropicolinoyl)-1-(4-fluorophenyl)-4,4a,5,6,7,8-hexahydro-1H-benzo[f]indazol-6-yl)-N-cyclopropyl-1-methyl-1H-pyrazole-3-sulfonamide] |
| ≤ 100 nM | 50 to 75% | Cn1cnc(S(=O)(=O)N(C2CCC2)[C@H]2CCC3=Cc4c(cnn4-c4ccc(F)cc4)C[C@]3(C(=O)c3cc(C(F)(F)F)ccn3)C2)c1 [Example 226, N-cyclobutyl-N-((4aS,6S)-1-(4-fluorophenyl)-4a-(4-(trifluoromethyl)picolinoyl)-4,4a,5,6,7,8-hexahydro-1H-benzo[f]indazol-6-yl)-1-methyl-1H-imidazole-4-sulfonamide] |
| ≤ 100 nM | 50 to 75% | O=C(c1cc(F)ccn1)[C@]12Cc3cnn(-c4ccc(F)cc4)c3C=C1CC[C@H](N(C1CC1)S(=O)(=O)c1ccc(F)cc1)C2 [Example 228, N-cyclopropyl-4-fluoro-N-((4aS,6S)-1-(4-fluorophenyl)-4a-(4-fluoropicolinoyl)-4,4a,5,6,7,8-hexahydro-1H-benzo[f]indazol-6-yl)benzenesulfonamide] |
| ≤ 100 nM | 50 to 75% | Cn1cc(S(=O)(=O)N(CC2CC2)[C@H]2CCC3=Cc4c(cnn4-c4ccc(F)cc4)C[C@]3(C(=O)c3cc(C(F)(F)F)ccn3)C2)nn1 [Example 229, N-(cyclopropylmethyl)-N-((4aS,6S)-1-(4-fluorophenyl)-4a-(4-(trifluoromethyl)picolinoyl)-4,4a,5,6,7,8-hexahydro-1H-benzo[f]indazol-6-yl)-1-methyl-1H-1,2,3-triazole-4-sulfonamide] |
| ≤ 100 nM | 50 to 75% | Cn1cc(S(=O)(=O)N(C2CCC2)[C@H]2CCC3=Cc4c(cnn4-c4ccc(F)cc4)C[C@]3(C(=O)c3cc(C(F)(F)F)ccn3)C2)nn1 [Example 230, N-cyclobutyl-N-((4aS,6S)-1-(4-fluorophenyl)-4a-(4-(trifluoromethyl)picolinoyl)-4,4a,5,6,7,8-hexahydro-1H-benzo[f]indazol-6-yl)-1-methyl-1H-1,2,3-triazole-4-sulfonamide] |
| ≤ 100 nM | 25 to 50% | CCN([C@H]1CCC2=Cc3c(cnn3-c3ccc(F)cc3)C[C@]2(C(=O)c2cc(C(F)(F)F)ccn2)C1)S(=O)(=O)c1cn(C)nn1 [Example 231, N-ethyl-N-((4aS,6S)-1-(4-fluorophenyl)-4a-(4-(trifluoromethyl)picolinoyl)-4,4a,5,6,7,8-hexahydro-1H-benzo[f]indazol-6-yl)-1-methyl-1H-1,2,3-triazole-4-sulfonamide] |
| ≤ 100 nM | 75 to 90% | CC(C)N([C@H]1CCC2=Cc3c(cnn3-c3ccc(F)cc3)C[C@]2(C(=O)c2ncc(C(F)(F)F)s2)C1)S(=O)(=O)c1cnn(C)n1 [Example 233, N-((4aS,6S)-1-(4-fluorophenyl)-4a-(5-(trifluoromethyl)thiazole-2-carbonyl)-4,4a,5,6,7,8-hexahydro-1H-benzo[f]indazol-6-yl)-N-isopropyl-2-methyl-2H-1,2,3-triazole-4-sulfonamide] |
| ≤ 100 nM | 75 to 90% | CC(C)N([C@H]1CCC2=Cc3c(cnn3-c3ccc(F)cc3)C[C@]2(C(=O)c2cc(C(F)(F)F)ccn2)C1)S(=O)(=O)c1cnn(C)n1 [Example 234, N-((4aS,6S)-1-(4-fluorophenyl)-4a-(4-(trifluoromethyl)picolinoyl)-4,4a,5,6,7,8-hexahydro-1H-benzo[f]indazol-6-yl)-N-isopropyl-2-methyl-2H-1,2,3-triazole-4-sulfonamide] |
| ≤ 100 nM | 50 to 75% | Cn1ncc(S(=O)(=O)N(CC(C)(C)O)[C@H]2CCC3=Cc4c(cnn4-c4ccc(F)cc4)C[C@]3(C(=O)c3ncc(C(F)(F)F)s3)C2)n1 [Example 236, N-((4aS,6S)-1-(4-fluorophenyl)-4a-(5-(trifluoromethyl)thiazole-2-carbonyl)-4,4a,5,6,7,8-hexahydro-1H-benzo[f]indazol-6-yl)-N-(2-hydroxy-2-methylpropyl)-2-methyl-2H-1,2,3-triazole-4-sulfonamide] |
| ≤ 100 nM | 75 to 90% | CC(C)N([C@H]1CCC2=Cc3c(cnn3-c3ccc(F)cc3)C[C@]2(C(=O)c2cc(F)ccn2)C1)S(=O)(=O)c1ccn(C)n1 [Example 241, N-((4aS,6S)-1-(4-fluorophenyl)-4a-(4-fluoropicolinoyl)-4,4a,5,6,7,8-hexahydro-1H-benzo[f]indazol-6-yl)-N-isopropyl-1-methyl-1H-pyrazole-3-sulfonamide] |
| ≤ 100 nM | 75 to 90% | CC(C)N([C@H]1CCC2=Cc3c(cnn3-c3ccc(F)cc3)C[C@]2(C(=O)c2cc(Cl)ccn2)C1)S(=O)(=O)c1ccn(C)n1 [Example 242, N-((4aS,6S)-4a-(4-chloropicolinoyl)-1-(4-fluorophenyl)-4,4a,5,6,7,8-hexahydro-1H-benzo[f]indazol-6-yl)-N-isopropyl-1-methyl-1H-pyrazole-3-sulfonamide] |
| ≤ 100 nM | 50 to 75% | CCN([C@H]1CCC2=Cc3c(cnn3-c3ccc(F)cc3)C[C@]2(C(=O)c2cc(C(F)(F)F)ccn2)C1)S(=O)(=O)C1CCCC1 [Example 243, N-ethyl-N-((4aS,6S)-1-(4-fluorophenyl)-4a-(4-(trifluoromethyl)picolinoyl)-4,4a,5,6,7,8-hexahydro-1H-benzo[f]indazol-6-yl)cyclopentanesulfonamide] |
| ≤ 100 nM | 75 to 90% | Cn1ccc(S(=O)(=O)N(CC2CC2)[C@H]2CCC3=Cc4c(cnn4-c4ccc(F)cc4)C[C@]3(C(=O)c3cc(F)ccn3)C2)n1 [Example 244, N-(cyclopropylmethyl)-N-((4aS,6S)-1-(4-fluorophenyl)-4a-(4-fluoropicolinoyl)-4,4a,5,6,7,8-hexahydro-1H-benzo[f]indazol-6-yl)-1-methyl-1H-pyrazole-3-sulfonamide] |
| ≤ 100 nM | 50 to 75% | Cn1ccc(S(=O)(=O)N(CC2CC2)[C@H]2CCC3=Cc4c(cnn4-c4ccc(F)cc4)C[C@]3(C(=O)c3cc(Cl)ccn3)C2)n1 [Example 245, N-((4aS,6S)-4a-(4-chloropicolinoyl)-1-(4-fluorophenyl)-4,4a,5,6,7,8-hexahydro-1H-benzo[f]indazol-6-yl)-N-(cyclopropylmethyl)-1-methyl-1H-pyrazole-3-sulfonamide] |
